Values of other authors in patent US20090209656A1, “DISINFECTION/SANITATION METHOD WHERE THE MATERIAL IS TREATED WITH A SOLUTION COMPRISING BENZYL ALCOHOL AND C2-3 ALCOHOL” (GE HEALTHCARE BIO-SCIENCES AB, priority 2006, published 2009).

Experiments:
[1] = long-term exposure
[2] = acute toxicity

For `OCc1ccccc1` [benzyl alcohol], the NOAEL [1] is listed as greater than 400 mg/kg body weight/day and the LD50 [2] is listed as 1610 mg/kg body weight.
